# From PubChem BioAssay AID1259407 (Chemical Carcinogenesis Research Information System (CCRIS), 2018)
# The source made the active and inactive calls. No rule for the calls is given here.
# Test system: CCRIS mutagenicity, Ames/micronucleus/aberration tests
# Test: CCRIS mutagenicity studies
# [1] = Test System: AMES SALMONELLA TYPHIMURIUM, Strain/Indicator: TA97, Metabolic Activation: HAMSTER, LIVER, S-9, AROCLOR 1254 (10 OR 30%), Method: PREINCUBATION
# [2] = Test System: AMES SALMONELLA TYPHIMURIUM, Strain/Indicator: TA97, Metabolic Activation: NONE, Method: PREINCUBATION
# [3] = Test System: AMES SALMONELLA TYPHIMURIUM, Strain/Indicator: TA97, Metabolic Activation: RAT, LIVER, S-9, AROCLOR 1254 (10 OR 30%), Method: PREINCUBATION
# [4] = Test System: AMES SALMONELLA TYPHIMURIUM, Strain/Indicator: TA98, Metabolic Activation: NONE, Method: PREINCUBATION
# [5] = Test System: AMES SALMONELLA TYPHIMURIUM, Strain/Indicator: TA100, Metabolic Activation: HAMSTER, LIVER, S-9, AROCLOR 1254 (10 OR 30%), Method: PREINCUBATION
# [6] = Test System: AMES SALMONELLA TYPHIMURIUM, Strain/Indicator: TA100, Metabolic Activation: NONE, Method: PREINCUBATION
# [7] = Test System: AMES SALMONELLA TYPHIMURIUM, Strain/Indicator: TA100, Metabolic Activation: RAT, LIVER, S-9, AROCLOR 1254 (10 OR 30%), Method: PREINCUBATION
# [8] = Test System: AMES SALMONELLA TYPHIMURIUM, Strain/Indicator: TA1535, Metabolic Activation: NONE, Method: PREINCUBATION
# [9] = Test System: AMES SALMONELLA TYPHIMURIUM, Strain/Indicator: TA1537, Metabolic Activation: NONE, Method: PREINCUBATION
structure (smiles),measurement,setting,value
Cc1ccc(N(C)C)cc1,mutagenic call,[1],inactive; negative
same,mutagenic call,[2],inactive; negative
same,mutagenic call,[3],inactive; negative
same,mutagenic call,"Test System: AMES SALMONELLA TYPHIMURIUM, Strain/Indicator: TA98, Metabolic Activation: HAMSTER, LIVER, S-9, AROCLOR 1254 (10 OR 30%), Method: PREINCUBATION",inactive; negative
same,mutagenic call,[4],inactive; negative
same,mutagenic call,"Test System: AMES SALMONELLA TYPHIMURIUM, Strain/Indicator: TA98, Metabolic Activation: RAT, LIVER, S-9, AROCLOR 1254 (10 OR 30%), Method: PREINCUBATION",inactive; negative
same,mutagenic call,[5],inactive; negative
same,mutagenic call,[6],inactive; negative
same,mutagenic call,[7],inactive; negative
same,mutagenic call,"Test System: AMES SALMONELLA TYPHIMURIUM, Strain/Indicator: TA1535, Metabolic Activation: RAT, LIVER, S-9, AROCLOR 1254 (5%), Method: STANDARD PLATE",active; positive
same,mutagenic call,"Test System: AMES SALMONELLA TYPHIMURIUM, Strain/Indicator: TA1535, Metabolic Activation: RAT, LIVER, S-9, AROCLOR 1254 (5,10%), Method: PREINCUBATION",active; positive
same,mutagenic call,"Test System: MOUSE LYMPHOMA, Strain/Indicator: L5178Y (TK+/TK-), Metabolic Activation: NONE, Method: SUSPENSION/PLATE",active; positive. reevaluation of results: equivocal
same,mutagenic call,"Test System: MOUSE LYMPHOMA, Strain/Indicator: L5178Y (TK+/TK-), Metabolic Activation: RAT, LIVER, S-9, AROCLOR 1254, Method: SUSPENSION/PLATE",active; positive. reevaluation of results: positive
COC(=O)C(/C=C(C)/C=C(C)/C=C/C=C(\C)C(=O)[C@]12O[C@H]1[C@@](O)(CCO)NC2=O)=C/CO,mutagenic call,[6],active; positive
C=C(C)C(=O)OCCCCCCCC,mutagenic call,[1],inactive; negative
same,mutagenic call,[2],inactive; negative
same,mutagenic call,[3],inactive; negative
same,mutagenic call,"Test System: AMES SALMONELLA TYPHIMURIUM, Strain/Indicator: TA98, Metabolic Activation: HAMSTER, LIVER, S-9, AROCLOR 1254 (10%), Method: PREINCUBATION",inactive; negative
same,mutagenic call,"Test System: AMES SALMONELLA TYPHIMURIUM, Strain/Indicator: TA98, Metabolic Activation: HAMSTER, LIVER, S-9, AROCLOR 1254 (30%), Method: PREINCUBATION",inactive; negative
same,mutagenic call,[4],inactive; negative
same,mutagenic call,"Test System: AMES SALMONELLA TYPHIMURIUM, Strain/Indicator: TA98, Metabolic Activation: RAT, LIVER, S-9, AROCLOR 1254 (10%), Method: PREINCUBATION",inactive; negative
same,mutagenic call,"Test System: AMES SALMONELLA TYPHIMURIUM, Strain/Indicator: TA98, Metabolic Activation: RAT, LIVER, S-9, AROCLOR 1254 (30%), Method: PREINCUBATION",inactive; negative
same,mutagenic call,[5],inactive; negative
same,mutagenic call,[6],inactive; negative
same,mutagenic call,[7],inactive; negative
same,mutagenic call,"Test System: AMES SALMONELLA TYPHIMURIUM, Strain/Indicator: TA1535, Metabolic Activation: HAMSTER, LIVER, AROCLOR 1254 (10 OR 30%), Method: PREINCUBATION",inactive; negative
same,mutagenic call,[8],inactive; negative
same,mutagenic call,"Test System: AMES SALMONELLA TYPHIMURIUM, Strain/Indicator: TA1535, Metabolic Activation: RAT, LIVER, S-9, AROCLOR 1254 (10 OR 30%), Method: PREINCUBATION",inactive; negative
same,mutagenic call,"Test System: AMES SALMONELLA TYPHIMURIUM, Strain/Indicator: TA1537, Metabolic Activation: HAMSTER, LIVER, S-9, AROCLOR 1254 (10%), Method: PREINCUBATION",inactive; negative
same,mutagenic call,[9],inactive; negative
same,mutagenic call,"Test System: AMES SALMONELLA TYPHIMURIUM, Strain/Indicator: TA1537, Metabolic Activation: RAT, LIVER, S-9, AROCLOR 1254 (10%), Method: PREINCUBATION",inactive; negative
O=Nn1cnc(CC(=O)NO)c1,mutagenic call,[4],active; positive
same,mutagenic call,[6],active; positive
CCOC(=O)C1=C(C)NC(C)=C(C(=O)OCC2COC3(CCCC3)O2)C1c1cccc(Cl)c1 (stereo not given),mutagenic call,"Test System: AMES SALMONELLA TYPHIMURIUM, Strain/Indicator: TA97, Metabolic Activation: NONE, Method: STANDARD PLATE",inactive; negative
same,mutagenic call,"Test System: AMES SALMONELLA TYPHIMURIUM, Strain/Indicator: TA97, Metabolic Activation: RAT, LIVER, S-9, Method: STANDARD PLATE",inactive; negative
same,mutagenic call,"Test System: AMES SALMONELLA TYPHIMURIUM, Strain/Indicator: TA98, Metabolic Activation: NONE, Method: STANDARD PLATE",inactive; negative
same,mutagenic call,"Test System: AMES SALMONELLA TYPHIMURIUM, Strain/Indicator: TA98, Metabolic Activation: RAT, LIVER, S-9, Method: STANDARD PLATE",inactive; negative
same,mutagenic call,"Test System: AMES SALMONELLA TYPHIMURIUM, Strain/Indicator: TA100, Metabolic Activation: NONE, Method: STANDARD PLATE",inactive; negative
same,mutagenic call,"Test System: AMES SALMONELLA TYPHIMURIUM, Strain/Indicator: TA100, Metabolic Activation: RAT, LIVER, S-9, Method: STANDARD PLATE",inactive; negative
same,mutagenic call,"Test System: AMES SALMONELLA TYPHIMURIUM, Strain/Indicator: TA102, Metabolic Activation: NONE, Method: STANDARD PLATE",inactive; negative
same,mutagenic call,"Test System: AMES SALMONELLA TYPHIMURIUM, Strain/Indicator: TA102, Metabolic Activation: RAT, LIVER, S-9, Method: STANDARD PLATE",inactive; negative
same,mutagenic call,"Test System: CHINESE HAMSTER V-79, Strain/Indicator: V-79 (HPRT)/6-THIOGUANINE, Metabolic Activation: NONE",inactive; negative
CC(=O)OO[N+](=O)[O-],mutagenic call,"Test System: AMES SALMONELLA TYPHIMURIUM, Strain/Indicator: TA100, Metabolic Activation: NONE",active; positive
same,mutagenic call,"Test System: AMES SALMONELLA TYPHIMURIUM, Strain/Indicator: TA100, Metabolic Activation: RAT, LIVER, S-9, AROCLOR 1254",active; positive
Brc1ccccc1-c1ccccc1,mutagenic call,"Test System: AMES SALMONELLA TYPHIMURIUM, Strain/Indicator: TA98, Metabolic Activation: HAMSTER, LIVER, S-9, AROCLOR 1254, Method: PREINCUBATION",inactive; negative
same,mutagenic call,[4],inactive; negative
same,mutagenic call,"Test System: AMES SALMONELLA TYPHIMURIUM, Strain/Indicator: TA98, Metabolic Activation: RAT, LIVER, S-9, AROCLOR 1254, Method: PREINCUBATION",inactive; negative
same,mutagenic call,"Test System: AMES SALMONELLA TYPHIMURIUM, Strain/Indicator: TA100, Metabolic Activation: HAMSTER, LIVER, S-9, AROCLOR 1254, Method: PREINCUBATION",inactive; negative
same,mutagenic call,[6],inactive; negative
same,mutagenic call,"Test System: AMES SALMONELLA TYPHIMURIUM, Strain/Indicator: TA100, Metabolic Activation: RAT, LIVER, S-9, AROCLOR 1254, Method: PREINCUBATION",inactive; negative
same,mutagenic call,"Test System: AMES SALMONELLA TYPHIMURIUM, Strain/Indicator: TA1535, Metabolic Activation: HAMSTER, LIVER, S-9, AROCLOR 1254, Method: PREINCUBATION",inactive; negative
same,mutagenic call,[8],inactive; negative
same,mutagenic call,"Test System: AMES SALMONELLA TYPHIMURIUM, Strain/Indicator: TA1535, Metabolic Activation: RAT, LIVER, S-9, AROCLOR 1254, Method: PREINCUBATION",inactive; negative
same,mutagenic call,"Test System: AMES SALMONELLA TYPHIMURIUM, Strain/Indicator: TA1537, Metabolic Activation: HAMSTER, LIVER, S-9, AROCLOR 1254, Method: PREINCUBATION",inactive; negative
same,mutagenic call,[9],inactive; negative
same,mutagenic call,"Test System: AMES SALMONELLA TYPHIMURIUM, Strain/Indicator: TA1537, Metabolic Activation: RAT, LIVER, S-9, AROCLOR 1254, Method: PREINCUBATION",inactive; negative
C=CC(Cl)CCl (stereo not given),mutagenic call,"Test System: AMES SALMONELLA TYPHIMURIUM, Strain/Indicator: TA102, Metabolic Activation: RAT LIVER S-9, PHENOBARBITAL AND 5,6-BENZOFLAVONE, Method: STANDARD PLATE",inactive; negative
same,mutagenic call,"Test System: AMES SALMONELLA TYPHIMURIUM, Strain/Indicator: TA2638, Metabolic Activation: RAT LIVER S-9, PHENOBARBITAL AND 5,6-BENZOFLAVONE, Method: STANDARD PLATE",inactive; negative
same,mutagenic call,"Test System: E. COLI, Strain/Indicator: WP2 (PKM101), Metabolic Activation: RAT LIVER S-9, PHENOBARBITAL AND 5,6-BENZOFLAVONE, Method: STANDARD PLATE",inactive; negative
same,mutagenic call,"Test System: E. COLI, Strain/Indicator: WP2 UVRA (PKM101), Metabolic Activation: RAT LIVER S-9, PHENOBARBITAL AND 5,6-BENZOFLAVONE, Method: STANDARD PLATE",inactive; negative
